Reference: the OPERA property sets (Mansouri et al. 2018)
Where a SMILES comes first, the peptide text is derived from it. [ ]: non-standard residue; d: D form. Orn = NCCC[CH](N)C(=O)O

Point of comparison: `O=C1CC(Sc2ccncc2)N1` (stereo not given), logP 0.61. Against it:
- CC(=O)N[C@@H](CO)C(=O)N[C@H](C(N)=O)C(C)C (Ac-Ser-Val-NH2) — lower, -1.53
- CC(=O)OCN1C(=O)C2=C(CCCC2)C1=O — higher, 1.15
- O=C(O)CCc1cc(=O)c2cc3c(cc2o1)CCCC3 — higher, 2.85
- Cc1ncc([N+](=O)[O-])n1CCc1ccncc1 — lower, 0.06
- CN(C)N=Nc1ccc(S(C)(=O)=O)cc1 — higher, 1.59
- CCC(=O)C(CS(=O)(=O)c1ccccc1)c1ccccc1 (stereo not given) — higher, 1.82
- CCN(CC)S(=O)(=O)N(CC)C1C=C2c3cccc4[nH]cc(c34)CC2N(C)C1 (stereo not given) — higher, 3.09
- CC(=O)OC1C(=O)C2(C)C(O)CC3OCC3(OC(C)=O)C2C(OC(=O)c2ccccc2)C2(O)CC(OC(=O)C(O)CNC(=O)c3ccccc3)C(C)=C1C2(C)C (stereo not given) — higher, 1.75
- Cc1cc(OCCN(C)C)c(C(C)C)cc1OS(=O)(=O)C12CCC(CC1=O)C2(C)C (stereo not given) — higher, 4.37
- CCOc1cccc(OCc2ccccc2CCCN2CCC(O)CC2)c1 — higher, 3.5
- O=[N+]([O-])c1ccc2ccc3cccc4ccc1c2c34 — higher, 5.06
- CCOC(=O)CCC(C)n1nc2ccccc2n1 (stereo not given) — higher, 3.05
- CNC(=C[N+](=O)[O-])NCCSCc1nccs1 — lower, -0.15
- C#CCOc1c(Cl)cc(NC=NOCCC)cc1Cl — higher, 4
- CCC(=O)C1(c2cccc(OC(C)=O)c2)CCN(C)CC1 — higher, 1.05
- C#CCOc1c(Cl)cc(NC=NOc2ccccc2)cc1Cl — higher, 4.4
- CCC(=O)C(CS(=O)(=O)c1ccc(C)cc1)c1ccc(C)cc1 (stereo not given) — higher, 3.3
- CC(=O)Nc1ccnnc1 — lower, -0.41
- OC1CCN(CCCc2ccccc2COc2ccc(F)cc2)CC1 — higher, 3.3
- COCC(Cn1ccnc1[N+](=O)[O-])OC (stereo not given) — lower, 0.06
- CN1C=CCC1c1cccnc1 (stereo not given) — higher, 1.47
- CC(=O)N(CCO)c1c(I)c(C(=O)NC(CO)CO)c(I)c(C(=O)NC(CO)CO)c1I — lower, -2.33
- COc1ccc(Cc2cccc(-c3c(O)c4ccc(Cl)cc4[nH]c3=O)c2)cc1 — higher, 4.8
- O=C(O)c1ccccc1N1C(=O)CCC1=O — higher, 1.55
- CN(C)N=Nc1ccc(C(F)(F)F)cc1 — higher, 4
- c1ccc(OCc2cccc(CN3CCCC3)c2)cc1 — higher, 3.75
- Cc1c(Cl)cccc1Cl — higher, 3.99
- O=C(CCn1ccnc1[N+](=O)[O-])NCCO — lower, -1.08
- Cc1ncnc2c1ncn2C1CCC(CO)O1 (stereo not given) — lower, -0.12
- C#CCC(O)(c1cccnc1)c1ccc2ccccc2c1 (stereo not given) — higher, 2.14
- Cc1cccc(Cl)c1Cl — higher, 3.96
- CCCCNC(=O)CNC(=O)C=[N+]=[N-] — lower, 0.37
- Cn1c([N+](=O)[O-])cnc1-c1ccccc1 — higher, 1.58
- Nc1nc(NCCO)c(Cl)nc1[N+](=O)[O-] — lower, 0.12
- CCCC(=O)OC(C(=O)NC1C(=O)N2C(C(=O)O)=C(C)CSC12)c1ccccc1 (stereo not given) — higher, 1.89
- O=[N+]([O-])c1nccn1COC(CO)CO — lower, -1.17
- CC(C)Oc1cccc(NC(=O)c2ccccc2C(F)(F)F)c1 — higher, 3.7
- COC(=O)n1cnc(CC(NC(=O)C2CCC(=O)N2)C(=O)N2CCCC2C(N)=O)c1 (stereo not given) — lower, -1.88
- CC(C)N1C(=O)C(=O)c2ccccc2C1=O — higher, 1.6
- CCC(C)N1C(=O)C(=O)c2ccccc2C1=O (stereo not given) — higher, 2.15
- CS(=O)(=O)ON1C(=O)c2ccc(N)cc2C1=O — within 0.2 log units, 0.8
- CCCN(C=Nc1ccn(C2CC(O)C(CO)O2)c(=O)n1)CCC (stereo not given) — lower, 0.4
- CCCNC(=O)c1ccccc1 — higher, 1.72
- O=[N+]([O-])c1nccn1CCN1CCCCC1 — lower, 0.36
- Clc1cc(-c2cc(Cl)c(Cl)c(Cl)c2Cl)c(Cl)c(Cl)c1Cl — higher, 8.68
- NC(=O)c1ccc2ccccc2c1 — higher, 1.88
- C#CC1(OC(=O)C2=CN(C)C=CC2)CCC2C3CCC4=CC(=O)CCC4C3CCC21C (stereo not given) — higher, 4.44
- OCC1CCC(n2cnc3cncnc32)O1 (stereo not given) — lower, -0.47
- Clc1cc(Cl)c(-c2cc(Cl)c(Cl)c(Cl)c2)cc1Cl — higher, 7.5
- N#CC(C#N)=NNc1c(Cl)cccc1Cl — higher, 4.51
- S=C=NCCCCCc1ccccc1 — higher, 4.4
- O=[N+]([O-])c1ncn(CC(F)(F)CO)n1 — lower, -0.21
- Clc1cc(-c2c(Cl)c(Cl)c(Cl)c(Cl)c2Cl)c(Cl)c(Cl)c1Cl — higher, 9.14
- COc1ccc(C(=O)NP(=O)(N2CC2)N2CC2)cc1 — higher, 1.08
- C#CCOc1c(Cl)cc(NC=NOCCCl)cc1Cl — higher, 3.7
- CC12CCC(=O)C=C1CCC1C2CCC2(C)C1CCC2(O)C(O)CO (stereo not given) — higher, 2
- Cc1ccc(C)c(Cl)c1 — higher, 3.86
- CCCCCNC(=O)C1(O)C(C)CC2C3CCC4=CC(=O)C=CC4(C)C3(F)C(O)CC21C (stereo not given) — higher, 3.64
- CCN(C=Nc1ccn(C2OC(CO)C(O)C2O)c(=O)n1)CC (stereo not given) — lower, -0.76
- COc1cccc2c1C(=O)c1c(O)c3c(c(O)c1C2=O)CC(O)(C(O)CO)CC3OC1CC(N2CCOCC2C#N)C(O)C(C)O1 (stereo not given) — higher, 1.56
- Cc1nonc1Cc1ccc([N+](=O)[O-])cc1 — higher, 2.21
- Cc1n[nH]c(C(=O)NCc2ccccc2)c1[N+](=O)[O-] — higher, 1.49
- CCCCCCOc1cccc(NC(=O)OCCN2CCOCC2)c1 — higher, 4.73
- COCCCNC(=S)Cn1cnc([N+](=O)[O-])n1 — within 0.2 log units, 0.63
- O=C(O)C(Cc1ccc(F)cc1)n1cccc1 (stereo not given) — higher, 2.04
- CCN1C(=O)C(=O)c2cc(OC)c(OC)cc2C1=O — higher, 1.31
- O=C(CCCN1CCC(C(O)(c2ccccc2)c2ccccc2)CC1)c1ccccc1 — higher, 4.42
- COCCOCC1COC(Cn2cncn2)(c2ccc(Cl)cc2Cl)O1 (stereo not given) — higher, 2.03
- CCOc1ncnc2c1ncn2C1OC(CO)CC1F (stereo not given) — within 0.2 log units, 0.8
- Nc1ncc(Cc2ccccc2Cl)c(N)n1 — higher, 2.24
- Cc1cc(O)cc(Br)c1O — higher, 1.38
- O=c1[nH]c(Nc2ccccc2)nc2c1ncn2CCO — higher, 0.83
- Clc1ccc(-c2c(Cl)c(Cl)c(Cl)c(Cl)c2Cl)cc1 — higher, 7.31
- O=c1ccn(C2C=C(CO)C(O)C2O)c(=O)[nH]1 (stereo not given) — lower, -2.19
- O=c1n[n+]([O-])ccn1Cc1ccccc1 — lower, 0.19
- CNC(=O)N(C)c1nnc(C(C)(C)C)s1 — higher, 1.79
- CCOC(=O)C(C)Oc1ccc(Oc2cnc3cc(C(F)(F)F)ccc3n2)cc1 (stereo not given) — higher, 4.37
- CCOC(CC)(OCC)OCC — higher, 1.97
- Nc1nc(Sc2ccc(Cl)cc2)nc(C(Cl)(Cl)Cl)n1 — higher, 4.51
- C#CCC(O)(c1cccnc1)c1ccc(Cl)cc1Cl (stereo not given) — higher, 2.29
- CC(C)OC(=O)n1cc(F)c(=O)[nH]c1=O — lower, 0.2
- OC1CCN(CCCc2ccc(CSc3ccccc3)cc2)CC1 — higher, 3.67
- Nc1nc(Cl)c2ncn(C3OC(CO)CC3F)c2n1 (stereo not given) — lower, 0.28
- CSc1nc(Nc2ccc(Cl)cc2)nc(C(Cl)(Cl)Cl)n1 — higher, 5.71
- CCC(=O)C(CS(=O)(=O)c1ccccc1)c1ccc(C)cc1 (stereo not given) — higher, 2.7
- Cc1ccc(Cl)c(Cl)c1Cl — higher, 4.56
- CC(=O)NC(Cc1ccccc1)C(=O)NC(CC(=O)O)C(=O)NC(CC(C)C)C(N)=O (stereo not drawn) (Ac-Phe-Asp-Leu-NH2; configuration not given here) — lower, 0.39
- O=[N+]([O-])C=C1NCCN1Cc1cccnc1 — lower, -1.02
- Nc1ccc2c(c1)C(=O)N(O)C2=O — lower, 0.16
- Cc1cccc(C)c1NC(=O)c1cccc(CN2CCCCC2)c1 — higher, 3.47
- CCOC(=O)Cn1ccnc1C=Cc1ccc([N+](=O)[O-])o1 — higher, 1.27
- Cc1ccc(-n2ccc(=O)c(O)c2C)cc1 — higher, 1.72
- C#CCOc1c(Cl)cc(NC=NO)cc1Cl — higher, 2.8
- CCCCCC(NC(C)=O)C(=O)OC (stereo not given) — higher, 1.28
- Cc1nc([N+](=O)[O-])c(Br)n1C — within 0.2 log units, 0.44
- O=C(NCO)c1c(I)c(C(=O)NCCO)c(I)c(N(CC(O)CO)C(=O)C(O)CO)c1I (stereo not given) — lower, -2.65
- Nc1c2ncn(C3OC(CO)CC3F)c2nc[n+]1[O-] (stereo not given) — lower, -1.38
- CCC1COC(Cn2cncn2)(c2ccc(NC(=O)c3ccc([N+](=O)[O-])cc3)cc2)O1 (stereo not given) — higher, 2.17
- Cc1cc(O)cc(C)c1O — higher, 1
- CN(C)C(=O)COC(=O)c1cc(S(N)(=O)=O)c(Cl)cc1NCc1ccco1 — higher, 1.18
- CCOCCN(CCOCC)CC(O)c1cc(-c2ccc(Cl)c(Cl)c2)nc2ccccc12 (stereo not given) — higher, 5.76
- CC(O)COc1ccc(Cl)cc1 (stereo not given) — higher, 2.41
- CCOC(=O)CCC(C)n1nnc2ccccc21 (stereo not given) — higher, 2.64
- CCn1cc(C(=O)O)c(=O)c2ccc(C)nc21 — higher, 1.59
- CCCCN(C)N=Nc1ccccc1C(N)=O — higher, 3.52
- CC1=C(N2CC2)C(=O)C(Br)=C(N2CC2)C1=O — higher, 1.36
- COc1cc(O)cc(OC)c1O — lower, 0.17
- CCCCCOC(=O)C(C(=O)OCCCCC)=C1SCCS1 — higher, 5.6
- Cc1c(O)c(=O)ccn1-c1ccc([N+](=O)[O-])cc1 — within 0.2 log units, 0.76
- C#CCON=CNc1cc(Cl)c(OCC#C)c(Cl)c1 — higher, 3.3
- CC(C)(C)C(=O)OCCOCn1cnc2c(=O)[nH]c(N)nc21 — lower, 0.3
- CCN(C=Nc1ccn(C2CC(O)C(CO)O2)c(=O)n1)CC (stereo not given) — lower, -0.59
- CCC1COC(Cn2cncn2)(c2ccc(C(=N)N)cc2)O1 (stereo not given) — higher, 0.85
- Cc1c(Cl)c(Cl)c(Cl)c(Cl)c1Cl — higher, 5.62
- Nc1nc2c(ncn2C2OC(CO)CC2F)c(=O)[nH]1 (stereo not given) — lower, -1.18
- CC(=O)OCC(O)Cn1ccnc1[N+](=O)[O-] (stereo not given) — lower, -0.37
- CC(C)(C)c1ccc2c(c1)OCCOCCOCCOCCOCCO2 — higher, 1.71
- CN(C)N=Nc1cccc(C(N)=O)c1 — higher, 1.3
- O=S1(=O)NC(C2CC=CC2)=Nc2ccccc21 — higher, 1.53
- CC(=O)C12OC(C)(c3ccc(F)cc3)OC1CC1C3CCC4=CC(=O)CCC4(C)C3CCC12C (stereo not given) — higher, 5.7
- CC(=O)NC(CCCN)C(=O)NC(Cc1ccccc1)C(=O)NC(CC(C)C)C(N)=O (stereo not drawn) (Ac-[Orn]-Phe-Leu-NH2; configuration not given here) — within 0.2 log units, 0.54
- CCCCC(C#N)(Cn1cncn1)c1ccc(Cl)cc1 (stereo not given) — higher, 2.94
- CN(C)N=Nc1ccc(CC(=O)O)cc1 — higher, 1.38
- COC(=O)CCCCC(S)CCS (stereo not given) — higher, 2.27
- COC(=O)c1ccc(OCC(OC(=O)n2ccnc2)C(C)(C)C)cc1 (stereo not given) — higher, 3.59
- C#CCOc1c(Cl)cc(NC=NOC(C)CC)cc1Cl (stereo not given) — higher, 4.2
- C1CC2=NOS3=C2C(=NO3)C1 — higher, 1.1
- C[C@H]1OC(O[C@H]2[C@@H](O)CC(O[C@H]3[C@@H](O)CC(O[C@H]4CC[C@@]5(C)[C@H](CC[C@@H]6[C@@H]5CC[C@]5(C)[C@@H](C7=CC(=O)OC7)[C@@H](OC=O)C[C@]65O)C4)O[C@@H]3C)O[C@@H]2C)C[C@H](O)[C@@H]1O (stereo not given in full) — higher, 2.04
- COc1ccc2cc(C(C)C(=O)OCC(=O)N(C)C)ccc2c1 (stereo not given) — higher, 2.05
